Assay results: PubChem BioAssay (NCI)
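Values below derive from 48-hour exposures of cells grown in 96-well plates, with endpoints linearly interpolated between the two concentrations bracketing the appropriate inhibition level. GI50 marks 50% less growth. TGI is the concentration that stops growth completely.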

Key:
Experiment in all cases: NCI anticancer screen, dose series, 48 h; in the data active = GI50 below about 0.43 µM; inactive = the rest
MCF7 breast = test system: MCF7 breast
NCI-H226 lung = test system: NCI-H226 lung
DU-145 prostate = test system: DU-145 prostate
NCI-H522 lung = test system: NCI-H522 lung
NCI/ADR-RES ovarian = test system: NCI/ADR-RES ovarian
UACC-62 melanoma = test system: UACC-62 melanoma
SNB-75 CNS = test system: SNB-75 CNS
COLO 205 colon = test system: COLO 205 colon
ACHN renal = test system: ACHN renal
PC-3 prostate = test system: PC-3 prostate
OVCAR-4 ovarian = test system: OVCAR-4 ovarian
BT-549 breast = test system: BT-549 breast
EKVX NSCLC = test system: EKVX NSCLC
OVCAR-5 ovarian = test system: OVCAR-5 ovarian
IGROV1 ovarian = test system: IGROV1 ovarian
SNB-19 CNS = test system: SNB-19 CNS
RPMI-8226 leukemia = test system: RPMI-8226 leukemia
LOX IMVI melanoma = test system: LOX IMVI melanoma
UACC-257 melanoma = test system: UACC-257 melanoma
U251 CNS = test system: U251 CNS
A549 NSCLC = test system: A549 NSCLC
HL-60(TB) leukemia = test system: HL-60(TB) leukemia
HS 578T breast = test system: HS 578T breast
M14 melanoma = test system: M14 melanoma
MDA-MB-231 breast = test system: MDA-MB-231 breast
HCT-15 colon = test system: HCT-15 colon
SF-268 CNS = test system: SF-268 CNS
OVCAR-8 ovarian = test system: OVCAR-8 ovarian
OVCAR-3 ovarian = test system: OVCAR-3 ovarian
SK-MEL-2 melanoma = test system: SK-MEL-2 melanoma
MOLT-4 leukemia = test system: MOLT-4 leukemia
NCI-H23 lung = test system: NCI-H23 lung
SN12C renal = test system: SN12C renal
SW-620 colon = test system: SW-620 colon
KM12 colon = test system: KM12 colon
SF-539 CNS = test system: SF-539 CNS
SK-MEL-5 melanoma = test system: SK-MEL-5 melanoma
HOP-92 NSCLC = test system: HOP-92 NSCLC
NCI-H460 lung = test system: NCI-H460 lung
SK-OV-3 ovarian = test system: SK-OV-3 ovarian
K-562 leukemia = test system: K-562 leukemia
RXF 393 renal = test system: RXF 393 renal
786-0 renal = test system: 786-0 renal
CAKI-1 renal = test system: CAKI-1 renal
SF-295 CNS = test system: SF-295 CNS
SK-MEL-28 melanoma = test system: SK-MEL-28 melanoma
UO-31 renal = test system: UO-31 renal
T-47D breast = test system: T-47D breast
HT29 colon = test system: HT29 colon
SR leukemia = test system: SR leukemia
HOP-62 NSCLC = test system: HOP-62 NSCLC
MDA-MB-435 = test system: MDA-MB-435
MALME-3M melanoma = test system: MALME-3M melanoma

Oc1cc2ccccc2cc1-c1n[nH]c(=S)n1CCc1ccccc1
91.8 µM: TGI (HT29 colon)
62.5 µM: TGI (RPMI-8226 leukemia)
31.3 µM: TGI (NCI-H522 lung)
55.3 µM: TGI (NCI-H226 lung)
53.4 µM: TGI (OVCAR-5 ovarian)
38.7 µM: TGI (LOX IMVI melanoma)
30.3 µM: TGI (IGROV1 ovarian)
39.6 µM: TGI (UACC-62 melanoma)
58.9 µM: TGI (MALME-3M melanoma)
59 µM: TGI (RXF 393 renal)
43.6 µM: TGI (SK-MEL-5 melanoma) | TGI (HOP-62 NSCLC)
43.5 µM: TGI (NCI/ADR-RES ovarian) | TGI (PC-3 prostate)
36.1 µM: TGI (NCI-H23 lung)
73.9 µM: TGI (CAKI-1 renal)
65.6 µM: TGI (UACC-257 melanoma)
37.2 µM: TGI (SF-268 CNS)
45.9 µM: TGI (BT-549 breast)
35.3 µM: TGI (NCI-H460 lung)
91.7 µM: TGI (MDA-MB-435)
52.7 µM: TGI (UO-31 renal)
39 µM: TGI (U251 CNS)
51.9 µM: TGI (HCT-15 colon)
69.8 µM: TGI (ACHN renal)
32.6 µM: TGI (SN12C renal)
57 µM: TGI (HS 578T breast)
44.5 µM: TGI (MCF7 breast) | TGI (SF-539 CNS)
36.2 µM: TGI (786-0 renal)
79.3 µM: TGI (EKVX NSCLC)
32.8 µM: TGI (SK-MEL-2 melanoma)
94 µM: TGI (OVCAR-3 ovarian)
inactive: GI50 (MCF7 breast) 22.5 µM | GI50 (NCI-H226 lung) 19.9 µM | GI50 (DU-145 prostate) 37.1 µM | GI50 (NCI-H522 lung) 15.3 µM | GI50 (NCI/ADR-RES ovarian) 21.1 µM | GI50 (UACC-62 melanoma) 21.2 µM | GI50 (SNB-75 CNS) 73.2 µM | GI50 (COLO 205 colon) 35.1 µM | GI50 (ACHN renal) 22.4 µM | GI50 (PC-3 prostate) 20.6 µM | GI50 (OVCAR-4 ovarian) 42.2 µM | GI50 (BT-549 breast) 18.6 µM | GI50 (EKVX NSCLC) 33.7 µM | GI50 (OVCAR-5 ovarian) 24.1 µM | GI50 (IGROV1 ovarian) 14.8 µM | GI50 (SNB-19 CNS) 36.7 µM | GI50 (RPMI-8226 leukemia) 18.1 µM | GI50 (LOX IMVI melanoma) 22.1 µM | GI50 (UACC-257 melanoma) 30 µM | GI50 (U251 CNS) 20.3 µM | GI50 (A549 NSCLC) 37.3 µM | GI50 (HL-60(TB) leukemia) 73.2 µM | GI50 (HS 578T breast) 24.2 µM | GI50 (M14 melanoma) 15.8 µM | GI50 (MDA-MB-231 breast) 22.1 µM | GI50 (HCT-15 colon) 22.5 µM | GI50 (SF-268 CNS) 19.7 µM | GI50 (OVCAR-8 ovarian) 35.5 µM | GI50 (OVCAR-3 ovarian) 34.4 µM | GI50 (SK-MEL-2 melanoma) 16.3 µM | GI50 (MOLT-4 leukemia) > 100 µM | GI50 (NCI-H23 lung) 16.5 µM | GI50 (SN12C renal) 16.7 µM | GI50 (SW-620 colon) 36.2 µM | GI50 (KM12 colon) 43.2 µM | GI50 (SF-539 CNS) 21.3 µM | GI50 (SK-MEL-5 melanoma) 19.4 µM | GI50 (HOP-92 NSCLC) 55.7 µM | GI50 (NCI-H460 lung) 20.2 µM | GI50 (SK-OV-3 ovarian) 25.9 µM | GI50 (K-562 leukemia) 68.2 µM | GI50 (RXF 393 renal) 30.7 µM | GI50 (786-0 renal) 18.3 µM | GI50 (CAKI-1 renal) 30.9 µM | GI50 (SF-295 CNS) 42.3 µM | GI50 (SK-MEL-28 melanoma) 44.8 µM | GI50 (UO-31 renal) 20.3 µM | GI50 (T-47D breast) 43.6 µM | GI50 (HT29 colon) 35.7 µM | GI50 (SR leukemia) > 100 µM | GI50 (HOP-62 NSCLC) 25.7 µM | GI50 (MDA-MB-435) 26.2 µM | GI50 (MALME-3M melanoma) 26.7 µM
57.8 µM: TGI (MDA-MB-231 breast)
32.2 µM: TGI (M14 melanoma)
> 100 µM: TGI (DU-145 prostate) | TGI (SNB-75 CNS) | TGI (COLO 205 colon) | TGI (OVCAR-4 ovarian) | TGI (SNB-19 CNS) | TGI (A549 NSCLC) | TGI (HL-60(TB) leukemia) | TGI (OVCAR-8 ovarian) | TGI (MOLT-4 leukemia) | TGI (SW-620 colon) | TGI (KM12 colon) | TGI (HOP-92 NSCLC) | TGI (SK-OV-3 ovarian) | TGI (K-562 leukemia) | TGI (SF-295 CNS) | TGI (SK-MEL-28 melanoma) | TGI (T-47D breast) | TGI (SR leukemia)
